Patent US4150970A, “Growth regulator for plants” (Board of Trustees of Michigan State University, priority 1977, dated 1979)
“Also recorded” adds a separate entry of the source.

What was measured:
Assay type in all cases: in vivo
[1] = tested on: IR-8 rice seedlings; experiment: Dry weight of rice seedlings in the dark with and without carbon dioxide (Example VII)
Procedure: (§1) Rice seed cv. IR-8, or Starbonnet was surface treated with 0.1 percent mercuric chloride and planted in 77 cc plastic cups containing vermiculite and watered with one-fourth Hoagland's nutrient solution containing 3 mM of nitrogen at pH 5.0. After 10 days, seedlings were transplanted to 220 cc specimen cups wrapped in aluminum foil and containing 180 cc of the same Hoagland's nutrient solution. Four seedlings were suspended in the solution with a sponge rubber disc. The plants were grown under a 8 h night at 25° C. and a 16 h day at 30° C. with 21 and 8 μwatts per cm^2 in the blue and red spectra respectively. In the test with varying light intensity the high light intensity was 30 13 and the low intensity was 15 and 8 μwatts per cm^2 for the blue and red spectra respectively. The nutrient solution was renewed every 2 or 3 days. After one week the plants were sorted for size and similar sized plants assigned to the same block for the experiment. Prior to the initiation of a test the plants in each cup were assigned treatment numbers by use of a random number table. […] Sixteen hours prior to a test the foil wrapped cups were tared, and filled with one-half Hoaglands solution containing 6 mM nitrogen. Eighteen μl of chloroform or chloroform containing 1.8 μg triacontanol were placed on 2 cm^2 of Whatman No. 1 filter papers, air dried and placed in the specimen cups. This concentration of 10 μg triacontanol/liter was used for all tests described in the following Examples except where specifically indicated to the contrary. Immediately prior to the test the cups were all brought up to 180 ml. including a set of cups without plants to measure evaporation.
In the tests comparing dry weight accumulation in plants grown either in the absence of CO2 or in normal air were grown as previously described except the test was initiated at the end of the 16 hour light period.
Plants were placed in 20×32 cm glass jars fitted with gas inlet and outlet ports. Three jars containing 2 cups each were used for a total of 24 plants for each treatment. The plants were ventilated with air or freed of CO2 by passing it through ascarite and then humidified. The flow rate was approximately 300 ml/minute. Carbon dioxide-free air was also used to purge the appropriate jars during a two minute period required to place the plants in the jars. The N analyses were done by the automated micro-Kjelldahl procedure of Ferrari (1960).
To determine the response of rice seedlings grown in the dark with and without carbon dioxide, 17 day old "IR-8" rice seedlings were grown in the dark for 6 hours. All the parameters of CO2 vs no CO2 and of triacontanol vs no triacontanol were run. The testing procedures were described above.

[2] = tested on: Michigan 396 field corn; experiment: Single and multiple foliar applications on field corn (Example XII)
Source text: (§2) Tests were run, under the conditions above described, to determine the response of "Michigan 396" field corn and "Larker" barley to single and multiple foliar applications of triacontanol at […]. Plants were one week old at time of first treatment and 25 days old at time or harvest. Table XII states the test results.

[3] = tested on: Larker barley; experiment: Single and multiple foliar applications on barley (Example XII)
Source text: as §2

[4] = tested on: Starbonnet rice seedlings; experiment: Dry weight, leaf area and water uptake of rice under two light intensities (Example XVI)
Procedure: as §1
Water uptake was measured by weighing the cups after removal of the plants and subtracting the tare and the water evaporated. For tests continued for more than one day, the solution used was measured every 3 days and new Hoagland's added and the pH maintained at 5.0 with sulfuric acid.
The plants were disected at harvest into shoots and roots. The expanded leaves were cut at the ligule and the newest leaf at the point it entered the sheath. The surface area of expanded leaves were measured using a Lambda Model LI-3000 planimeter. The plants were dried to constant weight in an oven at 100° C. and the roots, expanded leaves, and sheaths were weighed separately.
Fourteen day old "Starbonnet" rice seedlings were prepared and treated with triacontanol as explained in Example IV above.
The increase in dry weight and leaf area and the water uptake of the rice seedlings treated with triacontanol under two different light intensities was determined. High light was 30 and 13 μwatts/cm^2 and low light 15 and 8 μwatts/cm^2 in the blue and red spectra respectively. The plants were exposed to these light conditions 36 hours prior to treatment. At zero time the plants under low light intensity weighed 26.0 mg with 4.41 cm^2 leaf area. The high light plants weighed 29.5 mg per plant with 4.01 cm^2 leaf area per plant. FIGS. 1, 2 and 3 of the accompanying drawings show the results of these tests. In each Figure, A=low light control; B=low light+triacontanol; C=high light control; and D=high light+triacontanol. Presented in tabular form, the data for FIGS. 1, 2 and 3 appears in Table XVI, as follows: […]

[5] = tested on: IR-8 rice seedlings; experiment: Percent change in dry weight of rice seedlings in the dark (Example XVIII); settings: 0.01 mg/l
Procedure: as §1
This example was run to determine the percent change in dry weight of whole 15-day-old "IR-8" rice seedlings treated with triacontanol in the dark as compared with a control. The dry weight at zero time was 37.3 mg per seedling. […]

Structure (SMILES): CCCCCCCCCCCCCCCCCCCCCCCCCCCCCCO [Triacontanol, 1-triacontanol]
- CO2 fixation in the dark ([1]; dark 6 hours): stimulated rice seedlings to fix CO2 in the dark; also recorded: stimulates plants, such as rice seedlings, to fix CO2 in the dark
- Dry Wt, Expanded leaves ([1]; with CO2, dark 6 hours): 26.7 mg/plant
- Dry Wt, Roots ([1]; with CO2, dark 6 hours): 25.6 mg/plant
- Dry Wt, Whole Plant ([1]; with CO2, dark 6 hours): 71.9 mg/plant
- Dry Wt, Expanded leaves ([1]; without CO2, dark 6 hours): 22.4 mg/plant
- Dry Wt, Roots ([1]; without CO2, dark 6 hours): 23.2 mg/plant
- Dry Wt, Whole Plant ([1]; without CO2, dark 6 hours): 62.0 mg/plant
- Dry wt, Corn ([2]; treated at 7, 12 and 18 days): 562 mg/shoot
- Dry wt, Corn ([2]; treated at 7 and 12 days): 542 mg/shoot
- Dry wt, Corn ([2]; treated at 12 and 18 days): 614 mg/shoot
- Dry wt, Corn ([2]; treated at 7 days): 548 mg/shoot
- Dry wt, Corn ([2]; treated at 12 days): 522 mg/shoot
- Dry wt, Corn ([2]; treated at 18 days): 486 mg/shoot
- Dry wt, Barley ([3]; treated at 7, 12 and 18 days): 210 mg/shoot
- Dry wt, Barley ([3]; treated at 7 and 12 days): 206 mg/shoot
- Dry wt, Barley ([3]; treated at 12 and 18 days): 214 mg/shoot
- Dry wt, Barley ([3]; treated at 7 days): 205 mg/shoot
- Dry wt, Barley ([3]; treated at 12 days): 197 mg/shoot
- Dry wt, Barley ([3]; treated at 18 days): 193 mg/shoot
- Dry Wt., Percent Increase from Zero Time ([4]; high light, 4 hr): 16%
- Leaf Area, Percent Increase from Zero Time ([4]; high light, 4 hr): 19%
- Water Uptake ([4]; high light, 4 hr): 192 μl/cm^2 leaf area
- Dry Wt., Percent Increase from Zero Time ([4]; high light, 8 hr): 27%
- Leaf Area, Percent Increase from Zero Time ([4]; high light, 8 hr): 38%
- Water Uptake ([4]; high light, 8 hr): 351 μl/cm^2 leaf area
- Dry Wt., Percent Increase from Zero Time ([4]; high light, 16 hr): 51%
- Leaf Area, Percent Increase from Zero Time ([4]; high light, 16 hr): 88%
- Water Uptake ([4]; high light, 16 hr): 649 μl/cm^2 leaf area
- dry weight and leaf area gain under low light versus control under high light ([4]; low light conditions): gained as much dry weight and leaf area as the control plants did when subjected to high light conditions
- Dry Wt., Percent Increase from Zero Time ([4]; low light, 4 hr): 10%
- Leaf Area, Percent Increase from Zero Time ([4]; low light, 4 hr): 7%
- Water Uptake ([4]; low light, 4 hr): 117 μl/cm^2 leaf area
- Dry Wt., Percent Increase from Zero Time ([4]; low light, 8 hr): 23%
- Leaf Area, Percent Increase from Zero Time ([4]; low light, 8 hr): 31%
- Water Uptake ([4]; low light, 8 hr): 239 μl/cm^2 leaf area
- Dry Wt., Percent Increase from Zero Time ([4]; low light, 16 hr): 45%
- Leaf Area, Percent Increase from Zero Time ([4]; low light, 16 hr): 64%
- Water Uptake ([4]; low light, 16 hr): 453 μl/cm^2 leaf area
- Dry Weight (percent change) ([5]; 1 hour): 4%
- Dry Weight (percent change) ([5]; 3 hours): 6%
- Dry Weight (percent change) ([5]; 6 hours): 10%
